Test results from ChEMBL document CHEMBL4359931, “Synthesis, biological evaluation and molecular docking studies of new amides of 4-bromothiocolchicine as anticancer agents” (Bioorg Med Chem, 2019).
Active and inactive are the calls of the source. The rule behind the calls is not given here.

Experiments:
[1] = Cell cycle arrest in human ALL5 cells assessed as accumulation in S phase at 5 times of antiproliferative IC50 incubated for 24 hrs by propidium iodide based flow cytometry (reference value: […]); assay type: functional
Homo sapiens [2] = species on record: Homo sapiens; assay: Induction of apoptosis in human ALL5 cells assessed as reduction in 116 kDa PARP expression at 43 uM incubated for 24 and 48 hrs by immunoblot analysis; assay type: functional, cell-based
[3] = Cell cycle arrest in human ALL5 cells assessed as accumulation in G1 phase at 5 times of antiproliferative IC50 incubated for 72 hrs by propidium iodide based flow cytometry (reference value: 59.7 %); assay type: functional
MCF7 [4] = assay: Cell cycle arrest in human MCF7 cells assessed as accumulation in subG1 phase at 5 times of antiproliferative IC50 incubated for 72 hrs by propidium iodide based flow cytometry (reference value: 3.59 %); assay type: functional
[5] = Cell cycle arrest in human ALL5 cells assessed as accumulation in subG1 phase at 5 times of antiproliferative IC50 incubated for 72 hrs by propidium iodide based flow cytometry (reference value: 15.5 %); assay type: functional
Homo sapiens [6] = species on record: Homo sapiens; assay: Induction of cell cycle arrest in human ALL5 cells assessed as increase in 4 N DNA at 5 times of antiproliferative IC50 incubated for 48 hrs by propidium iodide based flow cytometry; assay type: functional
MCF7 [7] = assay: Cell cycle arrest in human MCF7 cells assessed as accumulation in G2 phase at 5 times of antiproliferative IC50 incubated for 72 hrs by propidium iodide based flow cytometry (reference value: 18.6 %); assay type: functional
[8] = Cell cycle arrest in human ALL5 cells assessed as accumulation in G2 phase at 5 times of antiproliferative IC50 incubated for 24 hrs by propidium iodide based flow cytometry (reference value: 10.6 %); assay type: functional
MCF7 [9] = assay: Cell cycle arrest in human MCF7 cells assessed as accumulation in G1 phase at 5 times of antiproliferative IC50 incubated for 48 hrs by propidium iodide based flow cytometry (reference value: 40.8 %); assay type: functional
MCF7 [10] = assay: Cell cycle arrest in human MCF7 cells assessed as accumulation in S phase at 5 times of antiproliferative IC50 incubated for 48 hrs by propidium iodide based flow cytometry (reference value: 34 %); assay type: functional
Homo sapiens [11] = species on record: Homo sapiens; assay: Induction of apoptosis in human ALL5 cells assessed as increase in 85 kDa PARP expression at 43 uM incubated for 48 hrs by immunoblot analysis; assay type: functional, cell-based
[12] = Cell cycle arrest in human ALL5 cells assessed as accumulation in G1 phase at 5 times of antiproliferative IC50 incubated for 48 hrs by propidium iodide based flow cytometry (reference value: 67.4 %); assay type: functional
[13] = Cell cycle arrest in human ALL5 cells assessed as accumulation in G2 phase at 5 times of antiproliferative IC50 incubated for 72 hrs by propidium iodide based flow cytometry (reference value: 11.3 %); assay type: functional
MCF7 [14] = assay: Cell cycle arrest in human MCF7 cells assessed as accumulation in S phase at 5 times of antiproliferative IC50 incubated for 72 hrs by propidium iodide based flow cytometry (reference value: 19.8 %); assay type: functional
MCF7 [15] = assay: Cell cycle arrest in human MCF7 cells assessed as accumulation in S phase at 5 times of antiproliferative IC50 incubated for 24 hrs by propidium iodide based flow cytometry (reference value: 19.9 %); assay type: functional
Homo sapiens [16] = species on record: Homo sapiens; assay: Induction of cell cycle arrest in human ALL5 cells assessed as increase in 4 N DNA at 5 times of antiproliferative IC50 incubated for 24 hrs by propidium iodide based flow cytometry; assay type: functional
[17] = Cell cycle arrest in human ALL5 cells assessed as accumulation in S phase at 5 times of antiproliferative IC50 incubated for 72 hrs by propidium iodide based flow cytometry (reference value: 13.5 %); assay type: functional
MCF7 [18] = assay: Cell cycle arrest in human MCF7 cells assessed as accumulation in subG1 phase at 5 times of antiproliferative IC50 incubated for 48 hrs by propidium iodide based flow cytometry (reference value: 9.19 %); assay type: functional
[19] = Cell cycle arrest in human ALL5 cells assessed as accumulation in S phase at 5 times of antiproliferative IC50 incubated for 48 hrs by propidium iodide based flow cytometry (reference value: 10.3 %); assay type: functional
[20] = Cell cycle arrest in human ALL5 cells assessed as accumulation in subG1 phase at 5 times of antiproliferative IC50 incubated for 48 hrs by propidium iodide based flow cytometry (reference value: 11 %); assay type: functional
[21] = Cell cycle arrest in human ALL5 cells assessed as accumulation in subG1 phase at 5 times of antiproliferative IC50 incubated for 24 hrs by propidium iodide based flow cytometry (reference value: 10.5 %); assay type: functional
MCF7 [22] = assay: Cell cycle arrest in human MCF7 cells assessed as accumulation in subG1 phase at 5 times of antiproliferative IC50 incubated for 24 hrs by propidium iodide based flow cytometry (reference value: 7.79 %); assay type: functional
[23] = Cell cycle arrest in human ALL5 cells assessed as accumulation in G1 phase at 5 times of antiproliferative IC50 incubated for 24 hrs by propidium iodide based flow cytometry (reference value: 68.1 %); assay type: functional
MCF7 [24] = assay: Cell cycle arrest in human MCF7 cells assessed as accumulation in G2 phase at 5 times of antiproliferative IC50 incubated for 24 hrs by propidium iodide based flow cytometry (reference value: 22.4 %); assay type: functional
MCF7 [25] = assay: Cell cycle arrest in human MCF7 cells assessed as accumulation in G2 phase at 5 times of antiproliferative IC50 incubated for 48 hrs by propidium iodide based flow cytometry (reference value: 16 %); assay type: functional
[26] = Antiproliferative activity against human ALL5 cells assessed as reduction in cell viability incubated for 120 hrs by MTT assay; assay type: functional, cell-based; conditions: ALL5, 120 h
MCF7 [27] = assay: Cell cycle arrest in human MCF7 cells assessed as accumulation in G1 phase at 5 times of antiproliferative IC50 incubated for 72 hrs by propidium iodide based flow cytometry (reference value: 58 %); assay type: functional
[28] = Cell cycle arrest in human ALL5 cells assessed as accumulation in G2 phase at 5 times of antiproliferative IC50 incubated for 48 hrs by propidium iodide based flow cytometry (reference value: 11.2 %); assay type: functional
MCF7 [29] = assay: Cell cycle arrest in human MCF7 cells assessed as accumulation in G1 phase at 5 times of antiproliferative IC50 incubated for 24 hrs by propidium iodide based flow cytometry (reference value: 49.9 %); assay type: functional
Homo sapiens [30] = species on record: Homo sapiens; assay: Induction of cell death in human ALL5 cells assessed as decrease in 4 N DNA at 5 times of antiproliferative IC50 incubated for 72 hrs by propidium iodide based flow cytometry; assay type: functional

COc1cc2c(c(OC)c1OC)-c1ccc(OC)c(=O)cc1[C@@H](NC(C)=O)CC2 [COLCHICINE]
Activity [1]: 12% | Activity (Homo sapiens [2]): Active | Activity [3]: 21.7% | Activity (MCF7 [4]): 12.6% | Activity [5]: 52.1% | Activity (Homo sapiens [6]): Active | Activity (MCF7 [7]): 64% | Activity [8]: 14.4% | Activity (MCF7 [9]): 14.5% | Activity (MCF7 [10]): 7.86% | Activity (Homo sapiens [11]): Active | Activity [12]: 33.2% | Activity [13]: 9.05% | Activity (MCF7 [14]): 7.4% | Activity (MCF7 [15]): 13% | Activity (Homo sapiens [16]): Active | Activity [17]: 17.1% | Activity (MCF7 [18]): 9.33% | Activity [19]: 17.1% | Activity [20]: 27.4% | Activity [21]: 19.7% | Activity (MCF7 [22]): 5.51% | Activity [23]: 54% | Activity (MCF7 [24]): 72.2% | Activity (MCF7 [25]): 68.3% | IC50 [26]: 8.6 nM | Activity (MCF7 [27]): 16% | Activity [28]: 22.3% | Activity (MCF7 [29]): 9.33% | Activity (Homo sapiens [30]): Active
